Source: patent US20060216346A1, “Dosage form containing (s)-pantoprazole as active ingredient” (priority 2003, published 2006)
Read-outs that look alike come from different tables or passages of the source.

Tests used:
Solubility at pH 7.4 = format: physicochemical; settings: at pH 7.4, compared to the racemic pantoprazole magnesium dihydrate
Description: (§1) This absorption of water is reversible, so that it is difficult to adjust an exact water content.

Dissolution rate = format: physicochemical; settings: compared to the racemic pantoprazole magnesium dihydrate
Description: as §1

Wettability = format: physicochemical; settings: compared to the racemic pantoprazole magnesium dihydrate
Description: as §1

[1] = Stability of the salt at 70° C. for one week; format: physicochemical; settings: for discolouration and decomposition: identical conditions
Description: Pantoprazole is the INN (International Nonproprietary Name) for the compound 5-difluoromethoxy-2-[(3,4-dimethoxy-2-pyridinyl)methylsulfinyl]-1H-benzimidazole. The magnesium salt of pantoprazole is the chemical compound magnesium bis[5-[difluoromethoxy]-2-[[3,4-dimethoxy-2-pyridinyl]methyl]sulfinyl]-1H-benzimidazolide]. The magnesium salt of (S)-pantoprazole [hereinafter also referred to as (−)-pantoprazole] and its hydrates in connection with the invention refers to the compound magnesium (−)-bis{[5-(difluoromethoxy)]-2-[(3,4-dimethoxy-2-pyridinyl)methylsulphinyl]-1H-benzimidazolide} including hydrates thereof. Here, particular emphasis is given to hydrates, which, after drying under reduced pressure at 50° C., have a water content of from 4.0 to 6.7% (by weight), in particular from 4.0 to 5.5%. Particular preference is given to the hydrate form which has a water content of from 4.0 to 5.0%, in particular from 4.2 to 4.4%, which corresponds to a dihydrate. The magnesium salt and its hydrates have highly surprising stability properties, making it a particularly suitable candidate for use in solid or oral dosage forms.
as §1

[2] = Hygroscopicity / absorption of water; format: physicochemical
Procedure: as §1
Drying is carried out in a vacuum drying cabinet at <50 mbar and 40-45° C. [It is also possible to dispense with drying and to use the moist product (having an MIBK content of 10-20%) directly for step B]. The white-beige crystalline product obtained after drying is hygroscopic. The water content is from 2 to 12%. The absorption and release of water are reversible. Yield: 34 g=90% of theory (based on anhydrous product). Specific rotation: aD^20+=−95 (c=0.5, measured in methanol, sodium salt having a water content of 12%). m.p.: 145-165° C. (decomposition, sodium salt having a water content of 2%); 102-109° C. (decomposition, sodium salt having a water content of 12%).

[3] = in comparison to pantoprazole itself or to pantoprazole sodium sesquihydrate; WO00/10995; cited from earlier work

| Compound | solubility (Solubility at pH 7.4) | dissolution rate (Dissolution rate) | wettability (Wettability) | stability ([1]; at 70° C., one week) | discolouration and decomposition ([1]; at 70° C., one week) | stability properties ([1]; compared to the sodium salt of (−)-pantoprazole) | hygroscopicity [2] | hygroscopicity ([2]; listed as (−)-Pantoprazole-Na) | stability properties [3] |
| --- | --- | --- | --- | --- | --- | --- | --- | --- | --- |
| COc1ccnc(C[S+]([O-])c2nc3cc(OC(F)F)ccc3[n-]2)c1OC.COc1ccnc(C[S+]([O-])c2nc3cc(OC(F)F)ccc3[n-]2)c1OC.O.O.[Mg+2] (single isomer, unassigned; (-)) [(−)-pantoprazole magnesium dihydrate, Magnesium (−)-bis{[5-(difluoromethoxy)]-2-[(3,4-dimethoxy-2-pyridinyl)methylsulphinyl]-1H-benzimidazolide}dihydrate] | better | considerably higher | better | completely stable | virtually no discolouration or decomposition | considerably improved stability properties | non-hygroscopic |  |  |
| COc1ccnc(C[S+]([O-])c2nc3cc(OC(F)F)ccc3[n-]2)c1OC.[Na+] (single isomer, unassigned; (-)) [(−)-pantoprazole sodium] |  |  |  |  | changes to brown, with formation of considerable amounts of decomposition products |  | absorbs water depending on drying conditions and atmospheric humidity | hygroscopic |  |
| COc1ccnc(C[S+]([O-])c2nc3cc(OC(F)F)ccc3[n-]2)c1OC.COc1ccnc(C[S+]([O-])c2nc3cc(OC(F)F)ccc3[n-]2)c1OC.[Mg+2] (centres unmarked) [magnesium bis[5-[difluoromethoxy]-2-[[3,4-dimethoxy-2-pyridinyl]methyl]sulfinyl]-1H-benzimidazolide]] |  |  |  |  |  |  |  |  | improved stability properties |
